Calls of active or inactive are those of the source. The rule behind the calls is not given here. Square brackets hold non-standard residues; d marks the D form. Peptide text beside a SMILES is read from it. Dip = N[C@H](C(=O)O)C(c1ccccc1)c1ccccc1; hPhe = N[C@@H](CCc1ccccc1)C(=O)O; Tic = O=C(O)[C@@H]1Cc2ccccc2CN1; Pip = O=C(O)[C@@H]1CCCCN1; hSer = N[C@@H](CCO)C(=O)O; Nva = CCC[C@H](N)C(=O)O
What was measured:
[1] = target: T1, Thioredoxin reductase 1, cytoplasmic (Homo sapiens) (UniProt Q16881); experiment: Inhibition of oxidized human TXR1 reductase activity by insulin reduction assay
T1 sequence (whole entry): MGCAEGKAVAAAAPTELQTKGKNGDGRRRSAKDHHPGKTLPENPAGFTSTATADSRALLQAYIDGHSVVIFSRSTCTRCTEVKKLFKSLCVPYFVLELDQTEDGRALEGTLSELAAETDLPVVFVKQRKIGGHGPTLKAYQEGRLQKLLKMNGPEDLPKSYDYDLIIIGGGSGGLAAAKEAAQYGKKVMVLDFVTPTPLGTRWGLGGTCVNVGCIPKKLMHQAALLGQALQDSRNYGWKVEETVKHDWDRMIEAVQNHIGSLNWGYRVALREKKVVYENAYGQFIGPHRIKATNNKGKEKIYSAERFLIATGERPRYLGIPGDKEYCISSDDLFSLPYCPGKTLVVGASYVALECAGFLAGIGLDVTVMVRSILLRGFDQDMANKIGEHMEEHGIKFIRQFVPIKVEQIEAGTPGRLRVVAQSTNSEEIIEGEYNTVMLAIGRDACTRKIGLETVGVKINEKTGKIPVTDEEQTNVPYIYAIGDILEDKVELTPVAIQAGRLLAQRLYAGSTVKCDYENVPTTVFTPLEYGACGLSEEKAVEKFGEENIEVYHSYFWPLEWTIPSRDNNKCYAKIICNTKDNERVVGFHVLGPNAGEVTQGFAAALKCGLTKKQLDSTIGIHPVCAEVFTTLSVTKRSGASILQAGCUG

[2] = target: T2, Thiol:disulfide interchange protein DsbA (Escherichia coli (strain K12), UniProt P0AEG4); experiment: Binding affinity to oxidized Escherichia coli DsbA by isothermal titration calorimetry assay
T2 sequence (P0AEG4 whole entry): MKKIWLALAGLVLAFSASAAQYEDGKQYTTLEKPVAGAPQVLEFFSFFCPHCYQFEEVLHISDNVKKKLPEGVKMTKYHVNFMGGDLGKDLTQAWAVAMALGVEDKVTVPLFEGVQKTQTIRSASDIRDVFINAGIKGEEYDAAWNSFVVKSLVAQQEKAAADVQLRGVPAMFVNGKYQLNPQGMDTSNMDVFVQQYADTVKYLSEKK

[3] = target: T3, Thiol:disulfide interchange protein DsbA (Escherichia coli (strain K12)) (UniProt P0AEG4); experiment: Binding affinity to Escherichia coli DsbA assessed as change in melting temperature at 4 mM by Thermal shift assay
T3 sequence (whole entry): T2 sequence (P0AEG4 whole entry)

[4] = target: T3, Thiol:disulfide interchange protein DsbA (Escherichia coli (strain K12)); experiment: Binding affinity to Escherichia coli DsbA assessed as change in melting temperature at 125 uM by Thermal shift assay
[5] = target: T3, Thiol:disulfide interchange protein DsbA (Escherichia coli (strain K12)); experiment: Binding affinity to Escherichia coli DsbA assessed as change in melting temperature at 500 uM by Thermal shift assay
[6] = target: T3, Thiol:disulfide interchange protein DsbA (Escherichia coli (strain K12)); experiment: Binding affinity to Escherichia coli DsbA assessed as change in melting temperature at 250 uM by Thermal shift assay
[7] = target: T3, Thiol:disulfide interchange protein DsbA (Escherichia coli (strain K12)); experiment: Binding affinity to Escherichia coli DsbA assessed as change in melting temperature at 2 mM by Thermal shift assay
[8] = target: T3, Thiol:disulfide interchange protein DsbA (Escherichia coli (strain K12)); experiment: Binding affinity to Escherichia coli DsbA assessed as change in melting temperature at 1 mM by Thermal shift assay

Molecule: CC(=O)N1CCC[C@H]1C(=O)N[C@@H](Cc1c[nH]c2ccccc12)C(=O)N[C@@H](C)C(=O)N[C@H](C(=O)N[C@@H](CS)C(=O)N[C@@H](CC(=O)O)C(=O)N[C@@H](CO)C(N)=O)[C@@H](C)O
- inhibition [1]: inactive

Molecule: CCC[C@H](NC(=O)[C@@H](NC(=O)[C@H](C)NC(=O)[C@H](Cc1c[nH]c2ccccc12)NC(=O)[C@@H]1CCCN1C(=O)[C@H](CO)NC(=O)[C@@H]1CCCN1C(C)=O)[C@@H](C)O)C(N)=O (Ac-PSPWAT[Nva]-NH2)
- Kd [2]: Not Active

Molecule: CC(=O)N1CCC[C@H]1C(=O)N[C@@H](CO)C(=O)N1CCC[C@H]1C(=O)N[C@@H](Cc1c[nH]c2ccccc12)C(=O)N[C@@H](C)C(=O)N[C@H](C(=O)N[C@@H](CCO)C(N)=O)[C@@H](C)O (Ac-PSPWAT[hSer]-NH2)
- Kd [2]: Not Active

Molecule: CC(=O)N1CCC[C@H]1C(=O)N[C@@H](CO)C(=O)N1CCC[C@H]1C(=O)N[C@H](C(=O)N[C@@H](C)C(=O)N[C@H](C(=O)N[C@@H](CS)C(N)=O)[C@@H](C)O)C(c1ccccc1)c1ccccc1 (Ac-PSP[Dip]ATC-NH2)
- Kd ([2]; read-out: Kd): 9.7 µM

Molecule: CC(=O)N1CCC[C@H]1C(=O)N[C@@H](CO)C(=O)N1CCC[C@H]1C(=O)N[C@@H](CCc1ccccc1)C(=O)N[C@@H](C)C(=O)N[C@H](C(=O)N[C@@H](CS)C(N)=O)[C@@H](C)O (Ac-PSP[hPhe]ATC-NH2)
- Kd ([2]; read-out: Kd): 14.9 µM

Molecule: CC(=O)N1CCC[C@H]1C(=O)N[C@@H](CO)C(=O)N1CCCC[C@H]1C(=O)N[C@@H](Cc1c[nH]c2ccccc12)C(=O)N[C@@H](C)C(=O)N[C@H](C(=O)N[C@@H](CS)C(N)=O)[C@@H](C)O (Ac-PS[Pip]WATC-NH2)
- Kd ([2]; read-out: Kd): 12 µM

Molecule: CC(=O)N1CCC[C@H]1C(=O)N[C@@H](CO)C(=O)N1Cc2ccccc2C[C@H]1C(=O)N[C@@H](Cc1c[nH]c2ccccc12)C(=O)N[C@@H](C)C(=O)N[C@H](C(=O)N[C@@H](CS)C(N)=O)[C@@H](C)O (Ac-PS[Tic]WATC-NH2)
- Kd ([2]; read-out: Kd): 13.1 µM

Molecule: CC(=O)N1CCC[C@H]1C(=O)N[C@@H](CCc1ccccc1)C(=O)N[C@@H](C)C(=O)N[C@H](C(=O)N[C@@H](CS)C(=O)N[C@@H](CC(=O)O)C(=O)N[C@@H](CO)C(N)=O)[C@@H](C)O (Ac-P[hPhe]ATCDS-NH2)
- Kd ([2]; read-out: Kd): 8.3 µM

Molecule: Ac-ASPWATCDF-NH2
- Kd ([2]; read-out: Kd): 2.7 µM

Molecule: Ac-PAPWATCDF-NH2
- Kd ([2]; read-out: Kd): 2.8 µM

Molecule: Ac-PFATCDF-NH2
- Kd ([2]; read-out: Kd): 5.9 µM

Molecule: Ac-PFATCDS-NH2
- ΔTm [3]: 9 °C
- ΔTm [4]: 0.6 °C
- Kd ([2]; read-out: Kd): 13.1 µM
- ΔTm [5]: 3.3 °C
- ΔTm [6]: 1.7 °C
- ΔTm [7]: 7.2 °C
- ΔTm [8]: 5.3 °C

Molecule: Ac-PSAWATCDF-NH2
- Kd ([2]; read-out: Kd): 5.5 µM

Molecule: Ac-PSPAATCDF-NH2
- Kd ([2]; read-out: Kd): 5.8 µM

Molecule: Ac-PSPWAACDF-NH2
- Kd ([2]; read-out: Kd): 11.3 µM

Molecule: Ac-PSPWATADF-NH2
- Kd [2]: Not Active

Molecule: Ac-PSPWATC-NH2
- Kd ([2]; read-out: Kd): 18 µM

Molecule: Ac-PSPWATCAF-NH2
- Kd ([2]; read-out: Kd): 3.1 µM

Molecule: Ac-PSPWATCD-NH2
- Kd ([2]; read-out: Kd): 10.7 µM

Molecule: Ac-PSPWATCDA-NH2
- Kd ([2]; read-out: Kd): 4.4 µM

Molecule: Ac-PSPWATCDF-NH2
- Kd ([2]; read-out: Kd): 2.9 µM

Molecule: Ac-PSPWATIDF-NH2
- Kd [2]: Not Active

Molecule: Ac-PSPWATM-NH2
- Kd [2]: Not Active

Molecule: Ac-PSPWATN-NH2
- Kd [2]: Not Active

Molecule: Ac-PSPWATSDF-NH2
- Kd [2]: Not Active

Molecule: Ac-PSPWATVDF-NH2
- Kd [2]: Not Active

Molecule: Ac-PWATCDF-NH2
- Kd ([2]; read-out: Kd): 3 µM

Molecule: Ac-PWATSDS-NH2
- ΔTm [3]: 2.9 °C
- ΔTm [4]: 0.1 °C
- Kd [2]: Not Active
- ΔTm [5]: 0.2 °C
- ΔTm [6]: 0.2 °C
- ΔTm [7]: 1.5 °C
- ΔTm [8]: 0.6 °C

Molecule: Ac-SPWATCDF-NH2
- Kd ([2]; read-out: Kd): 2.2 µM

Reference: ChEMBL document CHEMBL3396965, “Peptide inhibitors of the Escherichia coli DsbA oxidative machinery essential for bacterial virulence” (J Med Chem, 2015)
